In PubChem BioAssay (NCI):
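Tested at 5 concentrations; 48 h exposure; 96-well plates; endpoints linearly interpolated, else capped at highest concentration. TGI denotes the concentration required for complete inhibition of growth.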

Columns and labels:
Assay in all cases: inhibition of tumour cell growth, NCI panel, 48 h
SK-MEL-5 melanoma = tested on: SK-MEL-5 melanoma
COLO 205 colon = tested on: COLO 205 colon
IGROV1 ovarian = tested on: IGROV1 ovarian
MCF7 breast = tested on: MCF7 breast
DU-145 prostate = tested on: DU-145 prostate
786-0 renal = tested on: 786-0 renal
SW-620 colon = tested on: SW-620 colon
A549 NSCLC = tested on: A549 NSCLC
LOX IMVI melanoma = tested on: LOX IMVI melanoma
PC-3 prostate = tested on: PC-3 prostate
NCI-H23 lung = tested on: NCI-H23 lung
EKVX NSCLC = tested on: EKVX NSCLC
TK-10 renal = tested on: TK-10 renal
CCRF-CEM leukemia = tested on: CCRF-CEM leukemia
SK-MEL-28 melanoma = tested on: SK-MEL-28 melanoma
KM12 colon = tested on: KM12 colon
T-47D breast = tested on: T-47D breast
SNB-75 CNS = tested on: SNB-75 CNS
HOP-62 NSCLC = tested on: HOP-62 NSCLC
MDA-MB-231 breast = tested on: MDA-MB-231 breast
K-562 leukemia = tested on: K-562 leukemia
HL-60(TB) leukemia = tested on: HL-60(TB) leukemia
SR leukemia = tested on: SR leukemia
UACC-62 melanoma = tested on: UACC-62 melanoma
SF-295 CNS = tested on: SF-295 CNS
SF-268 CNS = tested on: SF-268 CNS
UACC-257 melanoma = tested on: UACC-257 melanoma
SN12C renal = tested on: SN12C renal
HCC-2998 colon = tested on: HCC-2998 colon
HCT-15 colon = tested on: HCT-15 colon
M14 melanoma = tested on: M14 melanoma
SK-OV-3 ovarian = tested on: SK-OV-3 ovarian
MDA-N = tested on: MDA-N
OVCAR-8 ovarian = tested on: OVCAR-8 ovarian
HT29 colon = tested on: HT29 colon
CAKI-1 renal = tested on: CAKI-1 renal
RXF 393 renal = tested on: RXF 393 renal
MALME-3M melanoma = tested on: MALME-3M melanoma
RPMI-8226 leukemia = tested on: RPMI-8226 leukemia
OVCAR-5 ovarian = tested on: OVCAR-5 ovarian
BT-549 breast = tested on: BT-549 breast
SNB-19 CNS = tested on: SNB-19 CNS
MDA-MB-435 = tested on: MDA-MB-435
NCI-H460 lung = tested on: NCI-H460 lung
MOLT-4 leukemia = tested on: MOLT-4 leukemia
UO-31 renal = tested on: UO-31 renal
A498 renal = tested on: A498 renal
HCT-116 colon = tested on: HCT-116 colon
SF-539 CNS = tested on: SF-539 CNS
SK-MEL-2 melanoma = tested on: SK-MEL-2 melanoma
OVCAR-3 ovarian = tested on: OVCAR-3 ovarian
U251 CNS = tested on: U251 CNS
OVCAR-4 ovarian = tested on: OVCAR-4 ovarian
ACHN renal = tested on: ACHN renal
HOP-92 NSCLC = tested on: HOP-92 NSCLC
NCI-H522 lung = tested on: NCI-H522 lung
HS 578T breast = tested on: HS 578T breast
NCI-H226 lung = tested on: NCI-H226 lung
NCI/ADR-RES ovarian = tested on: NCI/ADR-RES ovarian

Measured: TGI

COc1ccc(C(=O)/C=C/c2ccc(OCC(=N)N)cc2)cc1OC
9.98 µM: SNB-75 CNS
8.31 µM: KM12 colon
4.82 µM: HL-60(TB) leukemia
8.86 µM: CCRF-CEM leukemia
4.39 µM: SR leukemia
not listed: OVCAR-5 ovarian | BT-549 breast | SNB-19 CNS | MDA-MB-435 | NCI-H460 lung | MOLT-4 leukemia | UO-31 renal | A498 renal | HCT-116 colon | SF-539 CNS | SK-MEL-2 melanoma | OVCAR-3 ovarian | U251 CNS | OVCAR-4 ovarian | ACHN renal | HOP-92 NSCLC | NCI-H522 lung | HS 578T breast | NCI-H226 lung | NCI/ADR-RES ovarian
> 10 µM: all other assays above

CC1=C(C(=O)Nc2cccc3c2C(=O)NC3=O)CC(C(=O)Nc2cccc3c2C(=O)NC3=O)=C(C)N1
not listed: OVCAR-8 ovarian | HT29 colon | NCI-H226 lung | NCI/ADR-RES ovarian
> 100 µM: all other assays above

NCCCCNCCCN1CC1
> 42 µM: HT29 colon
1.05 µM: RXF 393 renal
5.32 µM: HL-60(TB) leukemia
> 82.9 µM: OVCAR-5 ovarian
5.75 µM: 786-0 renal
17.4 µM: BT-549 breast
1.92 µM: SNB-75 CNS
9.67 µM: SK-MEL-5 melanoma
2.14 µM: HS 578T breast
18.3 µM: EKVX NSCLC
8.98 µM: OVCAR-3 ovarian
> 94.6 µM: MDA-MB-435
7.47 µM: HOP-92 NSCLC
2.59 µM: SF-539 CNS
22.5 µM: SNB-19 CNS
3.46 µM: LOX IMVI melanoma | T-47D breast
91.1 µM: UACC-62 melanoma
12.8 µM: UO-31 renal
97.1 µM: HCC-2998 colon
5.83 µM: HOP-62 NSCLC
> 29.6 µM: DU-145 prostate
16.2 µM: NCI-H23 lung
0.382 µM: CAKI-1 renal
28.9 µM: U251 CNS
52.9 µM: SR leukemia
> 26 µM: SK-MEL-28 melanoma
> 91.9 µM: MALME-3M melanoma
24.4 µM: KM12 colon
1.84 µM: A498 renal
3.71 µM: COLO 205 colon
0.733 µM: OVCAR-4 ovarian
> 31.4 µM: NCI-H226 lung
> 21.5 µM: IGROV1 ovarian
> 26.4 µM: K-562 leukemia
19.9 µM: NCI-H522 lung
not listed: CCRF-CEM leukemia | MDA-MB-231 breast | SN12C renal | SK-OV-3 ovarian | OVCAR-8 ovarian | MOLT-4 leukemia | SK-MEL-2 melanoma | ACHN renal | NCI/ADR-RES ovarian
> 100 µM: all other assays above

Cc1c(C#N)c2nnn(C)c(=O)n2c1-c1ccccc1
not listed: SK-MEL-5 melanoma | COLO 205 colon | IGROV1 ovarian | DU-145 prostate | 786-0 renal | LOX IMVI melanoma | T-47D breast | K-562 leukemia | SR leukemia | HT29 colon | MALME-3M melanoma | MOLT-4 leukemia | HCT-116 colon | NCI-H522 lung | HS 578T breast
> 100 µM: all other assays above

CC(C)c1ccccc1SC1CC(=O)CC(Sc2ccccc2C(C)C)C12O[C@H](c1ccccc1)[C@@H](c1ccccc1)O2 (stereo partly drawn)
82.9 µM: T-47D breast
47.5 µM: MDA-N
97.4 µM: LOX IMVI melanoma
62.5 µM: CAKI-1 renal
40.8 µM: M14 melanoma
55.2 µM: MDA-MB-435
42 µM: RXF 393 renal
71.8 µM: MDA-MB-231 breast
47.9 µM: SN12C renal
96.4 µM: UACC-62 melanoma
33.3 µM: 786-0 renal
61.3 µM: RPMI-8226 leukemia
34.8 µM: HL-60(TB) leukemia
52.9 µM: CCRF-CEM leukemia
40.1 µM: U251 CNS
not listed: SNB-75 CNS | K-562 leukemia | SR leukemia | SF-268 CNS | MALME-3M melanoma | UO-31 renal | NCI-H522 lung | HS 578T breast | NCI-H226 lung
> 100 µM: all other assays above
